Data from the NIST ThermoML archive (doi:10.1016/j.jct.2018.03.001).
± gives the expanded uncertainty stated by the source.

Test: molar enthalpy of vaporization or sublimation
Details: 298.15 K; Liquid; Static calorimetry

Structure (SMILES): NCCN1CCOCC1 [4-morpholineethanamine]
- molar enthalpy: 15.3 ± 0.932 kcal/mol

Structure (SMILES): NCCCN1CCOCC1 [N-(3-aminopropyl)morpholine]
- molar enthalpy: 14.8 ± 0.86 kcal/mol
